{"source": "patent US20080031868A1", "about": "“HUMAN LYSOZYME MEDICINE, ITS MANUFACTURING METHOD AND APPLICATION THEREOF” (priority 2005, published 2008)", "test_system": "Staphylococcus aureus MRSABAA-42", "test": "Bronchus pneumonia mice infected by Staphylococcus aureus MRSA BAA-42, treated by atomization inspiring", "format": "in vivo", "details": "for bacterial number: mice lung", "note": "Marks after values point to notes of the source that are not given here.", "data": [{"substance": "Human lysozyme: gene recombinant Human Lysozyme (HLZ), active unit 30000 u/mg, batch number 020110; given atomized / as aerosol", "values": [{"measurement": "accumulative survival number", "setting": "2 mg/ml atomization inspired, 30 mice, 14 days", "value": 23}, {"measurement": "survival rate (%)", "setting": "2 mg/ml atomization inspired, 14 days", "value": 76.7, "unit": "%"}, {"measurement": "Death number(piece)", "setting": "2 mg/ml atomization inspired, day 1", "value": 0, "unit": "piece"}, {"measurement": "Death number(piece)", "setting": "2 mg/ml atomization inspired, day 2", "value": 0, "unit": "piece"}, {"measurement": "Death number(piece)", "setting": "2 mg/ml atomization inspired, day 3", "value": 0, "unit": "piece"}, {"measurement": "Death number(piece)", "setting": "2 mg/ml atomization inspired, day 4", "value": 0, "unit": "piece"}, {"measurement": "Death number(piece)", "setting": "2 mg/ml atomization inspired, day 5", "value": 0, "unit": "piece"}, {"measurement": "Death number(piece)", "setting": "2 mg/ml atomization inspired, day 6", "value": 0, "unit": "piece"}, {"measurement": "Death number(piece)", "setting": "2 mg/ml atomization inspired, day 7", "value": 0, "unit": "piece"}, {"measurement": "Death number(piece)", "setting": "2 mg/ml atomization inspired, day 9", "value": 2, "unit": "piece"}, {"measurement": "Death number(piece)", "setting": "2 mg/ml atomization inspired, day 10", "value": 1, "unit": "piece"}, {"measurement": "Death number(piece)", "setting": "2 mg/ml atomization inspired, day 11", "value": 2, "unit": "piece"}, {"measurement": "Death number(piece)", "setting": "2 mg/ml atomization inspired, day 12", "value": 0, "unit": "piece"}, {"measurement": "Death number(piece)", "setting": "2 mg/ml atomization inspired, day 13", "value": 0, "unit": "piece"}, {"measurement": "Death number(piece)", "setting": "2 mg/ml atomization inspired, day 14", "value": 0, "unit": "piece"}, {"measurement": "survival elevation rate (%)", "setting": "2 mg/ml atomization inspired, versus infected model group", "value": 60.0, "unit": "%"}, {"measurement": "improving of survival rate and days over infected control group", "setting": "2, 1, 0.5 mg/ml, p<0.05", "value": "30-60%"}, {"measurement": "lung bacterial number", "setting": "by the 14th day, basically negative", "value": "< 10", "unit": "CFU/ml"}, {"measurement": "The 4th day (bacterial number, head incomplete)", "setting": "dose 0.5", "value": "5.0 ± 3.0"}, {"measurement": "The 5th day (bacterial number, head incomplete)", "setting": "dose 0.5, the 5th day", "value": "80.80 ± 14.28"}, {"measurement": "The 4th day (bacterial number, head incomplete)", "setting": "dose 1", "value": "5.5 ± 3.2"}, {"measurement": "The 5th day (bacterial number, head incomplete)", "setting": "dose 1, the 5th day", "value": "78.30 ± 17.86"}, {"measurement": "The 4th day (bacterial number, head incomplete)", "setting": "dose 2", "value": "3.5 ± 2.0"}, {"measurement": "The 5th day (bacterial number, head incomplete)", "setting": "dose 2, the 5th day", "value": "76.70 ± 11.60"}, {"measurement": "result of pathology detection of the mice bronchus", "setting": "high dose 2 mg/ml, 3rd day", "value": "bronchus moderate inflammation, mucous membrane"}, {"measurement": "result of pathology detection of the mice lung tissue", "setting": "high dose 2 mg/ml, 3rd day", "value": "part of alveolar wall tissue thickening, few monocaryon"}, {"measurement": "result of pathology detection of the mice trachea", "setting": "high dose 2 mg/ml, 3rd day", "value": "acute moderate inflammation"}, {"measurement": "result of pathology detection of the mice bronchus", "setting": "high dose 2 mg/ml, 7th day", "value": "bronchus moderate inflammation, intact mucous"}, {"measurement": "result of pathology detection of the mice lung tissue", "setting": "high dose 2 mg/ml, 7th day", "value": "normal basically"}, {"measurement": "result of pathology detection of the mice trachea", "setting": "high dose 2 mg/ml, 7th day", "value": "Normal basically"}, {"measurement": "result of pathology detection of the mice bronchus", "setting": "high dose 2 mg/ml, 14th day", "value": "Normal basically"}, {"measurement": "result of pathology detection of the mice bronchus", "setting": "low dose 0.5 mg/ml, 3rd day", "value": "bronchus moderate inflammation"}, {"measurement": "result of pathology detection of the mice lung tissue", "setting": "low dose 0.5 mg/ml, 3rd day", "value": "the disperse alveolar wall tissue gently thickening,"}, {"measurement": "result of pathology detection of the mice trachea", "setting": "low dose 0.5 mg/ml, 3rd day", "value": "acute hyperphlogosis"}, {"measurement": "result of pathology detection of the mice bronchus", "setting": "low dose 0.5 mg/ml, 7th day", "value": "bronchus moderate inflammation"}, {"measurement": "result of pathology detection of the mice lung tissue", "setting": "low dose 0.5 mg/ml, 7th day", "value": "the part or disperse alveolar wall tissue gently"}, {"measurement": "result of pathology detection of the mice trachea", "setting": "low dose 0.5 mg/ml, 7th day", "value": "acute hyperphlogosis"}, {"measurement": "result of pathology detection of the mice bronchus", "setting": "low dose 0.5 mg/ml, 14th day", "value": "bronchus moderate inflammation, bleeding"}, {"measurement": "result of pathology detection of the mice trachea", "setting": "low dose 0.5 mg/ml, 14th day", "value": "acute mild inflammation"}, {"measurement": "result of pathology detection of the mice bronchus", "setting": "medium dose 1 mg/ml, 3rd day", "value": "bronchus moderate inflammation, bleeding, hydroncus,"}, {"measurement": "result of pathology detection of the mice lung tissue", "setting": "medium dose 1 mg/ml, 3rd day", "value": "bronchiole alveolar wall tissue thickening, few"}, {"measurement": "result of pathology detection of the mice trachea", "setting": "medium dose 1 mg/ml, 3rd day", "value": "acute moderate inflammation"}, {"measurement": "result of pathology detection of the mice bronchus", "setting": "medium dose 1 mg/ml, 7th day", "value": "bronchus moderate inflammation"}, {"measurement": "result of pathology detection of the mice trachea", "setting": "medium dose 1 mg/ml, 7th day", "value": "acute moderate inflammation"}, {"measurement": "result of pathology detection of the mice bronchus", "setting": "medium dose 1 mg/ml, 14th day", "value": "bronchus moderate inflammation"}, {"measurement": "result of pathology detection of the mice lung tissue", "setting": "medium dose 1 mg/ml, 14th day", "value": "normal basically"}, {"measurement": "result of pathology detection of the mice trachea", "setting": "medium dose 1 mg/ml, 14th day", "value": "Normal basically"}, {"measurement": "pharmacology histology detection of trachea, bronchus, lung tissue", "setting": "mice killed on the 7th, 14th day after administration", "value": "turned to normal basically"}, {"measurement": "bacterial number", "setting": "atomization inspired 0.5 (15000 u/piece), the 1th day", "value": "350.60 ± 21.5", "unit": "CFU/mL"}, {"measurement": "bacterial number", "setting": "atomization inspired 0.5 (15000 u/piece), the 3rd day", "value": "241.90 ± 16.62", "unit": "CFU/mL"}, {"measurement": "bacterial number", "setting": "atomization inspired 0.5 (15000 u/piece), the 5th day", "value": "134.60 ± 13.58", "unit": "CFU/mL"}, {"measurement": "bacterial number", "setting": "atomization inspired 0.5 (15000 u/piece), the 14th day", "value": "57.60 ± 15.37", "unit": "CFU/mL"}, {"measurement": "bacterial number", "setting": "atomization inspired 1 (30000 u/piece), 0 day", "value": "350 ± 21.5", "unit": "CFU/mL"}, {"measurement": "bacterial number", "setting": "atomization inspired 1 (30000 u/piece), the 1th day", "value": "254.20 ± 25.42", "unit": "CFU/mL"}, {"measurement": "bacterial number", "setting": "atomization inspired 1 (30000 u/piece), the 3rd day", "value": "172.70 ± 17.62**^ΔΔ CFU/mL"}, {"measurement": "bacterial number", "setting": "atomization inspired 1 (30000 u/piece), the 14th day", "value": "3.5 ± 0.20", "unit": "CFU/mL"}, {"measurement": "bacterial number", "setting": "atomization inspired 2 (60000 u/piece), the 1th day", "value": "253.80 ± 22.88", "unit": "CFU/mL"}, {"measurement": "bacterial number", "setting": "atomization inspired 2 (60000 u/piece), the 3rd day", "value": "165.80 ± 16.08^ΔΔ CFU/mL"}, {"measurement": "bacterial number", "setting": "atomization inspired 2 (60000 u/piece), the 5th day", "value": "76.70 ± 11.60***^ΔΔ CFU/mL"}, {"measurement": "bacterial number", "setting": "atomization inspired 2 (60000 u/piece), the 14th day", "value": "2.50 ± 1.46", "unit": "CFU/mL"}]}]}
